Where a SMILES comes first, the peptide text is derived from it. [ ]: non-standard residue; d: D form. Bip(4'-COOH) = N[C@@H](Cc1ccc(-c2ccc(C(=O)O)cc2)cc1)C(=O)O; 1Nal(3S-Me) = C[C@@H](c1cccc2ccccc12)[C@H](N)C(=O)O; Ala(indazol-1-yl) = N[C@@H](Cn1ncc2ccccc21)C(=O)O; Ala(indolin-1-yl) = N[C@@H](CN1CCc2ccccc21)C(=O)O; Phe(4-COOH) = N[C@@H](Cc1ccc(C(=O)O)cc1)C(=O)O; h3Pal(5-CN) = N#Cc1cncc(CC[C@H](N)C(=O)O)c1; Pro(4R-NH2) = N[C@H]1CN[C@H](C(=O)O)C1; 1Nal = N[C@@H](Cc1cccc2ccccc12)C(=O)O; hTyr = N[C@@H](CCc1ccc(O)cc1)C(=O)O; 4Pal = N[C@@H](Cc1ccncc1)C(=O)O; Orn = NCCC[C@H](N)C(=O)O; dNMeA = CN[C@H](C)C(=O)O; Dab = NCC[C@H](N)C(=O)O; Dap = NC[C@H](N)C(=O)O; Aib = CC(C)(N)C(=O)O

For this assay, the target named is T1, Recombinant human IL-1β (Homo sapiens, UniProt P01584).
T1 construct: purchased BioLegend 579404
T1 sequence (P01584 117-269): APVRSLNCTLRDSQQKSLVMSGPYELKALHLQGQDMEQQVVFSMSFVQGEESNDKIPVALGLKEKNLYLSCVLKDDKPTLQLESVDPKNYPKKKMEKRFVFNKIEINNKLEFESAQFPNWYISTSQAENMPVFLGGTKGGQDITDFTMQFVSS
Briefly: IL-6 assay in MRC5 cells: inhibition of IL-1β induced IL-6 secretion (AlphaLISA). It counts as cell-based. Particulars: inhibition of IL-1β induced IL-6 secretion in MRC5 cells; IL-1β pre-incubated 1 hour with compound; read-out: MRC5 IC50. As to the method:
Procedure for IL-6 Assay in MRC5 Cells
The inhibition of IL-1β induced IL-6 secretion was evaluated in MRC5 cells. Recombinant human IL-1β (BioLegend 579404) at 2×EC80 concentration was prepared in seeding medium, EMEM (ATCC 30-2003) with 0.025% BSA (Sigma A9576), 1× penicillin/streptomycin (Gibco 15070-063), 1×NEAA (Gibco 11140-050), 1× GlutaMax (Gibco 35050-061), and 1× sodium pyruvate (Gibco 11360-070). 20 μL of IL-1β was added to a 384-well collagen-coated plate (Corning 354664) and pre-incubated at ambient temperature for 1 hour with 200 nL of compound dispensed using an ECHO 555 liquid handler. Human lung fibroblast MRC5 cells (ATCC CCL-171) were added at a density of 3000 cells/20 μL per well. The cells were prepared by passaging three times in growth medium, EMEM (ATCC 30-2003) with 10% fetal bovine serum (Gibco 16140-071), 1× penicillin/streptomycin (Gibco 15070-063), 1×NEAA (Gibco 11140-050), 1× GlutaMax (Gibco 35050-061), and 1× sodium pyruvate (Gibco 11360-070) in collagen-coated T175 flasks (Greiner 661950) and harvested in seeding medium after 5 minutes of 0.25% trypsin-EDTA (Gibco 25200-056) digestion. The 384-well collagen-coated plate, containing a final volume of 40 μL, was incubated at 37° C., 5% CO2 overnight. 5 μL of the conditioned medium was transferred to a 384-well AlphaLISA plate (PerkinElmer 6005350) for detection of IL-6 using the human AlphaLISA IL-6 kit (PerkinElmer AL223F) as per the manufacturer's protocol. 20 μL of the acceptor bead/biotinylated antibody mix was added to the 384-well AlphaLISA plate and incubated for 1 hour at ambient temperature. The donor bead mix was protected from light and 25 μL was added to the plate and incubated for 30 minutes at ambient temperature. The AlphaLISA plate was read on an EnVision multimode plate reader (Perkin Elmer model 2104) using the AlphaScreen setting (laser exc at 680 nm and emis at 570 nm). Dose response curves and IC50 values were analyzed using a 4-parameter logistic equation in Spotfire software (Tibco, Palo Alto, CA).
In general terms: Bead proximity is the source of the signal in Alpha formats.
The term IC50 denotes the concentration that gives 50% inhibition. In the case of `C[C@@H]1C(=O)NCC(=O)N[C@@H](Cc2ccc(-c3ccc(C(=O)O)cc3)cc2)C(=O)N[C@@H](Cn2ncc3ccccc32)C(=O)N[C@@H](CN)C(=O)N[C@H](C)C(=O)N[C@@H](CCc2ccc(O)cc2)C(=O)N[C@@H](Cc2ccc(-c3ccc(C(=O)O)cc3)cc2)C(=O)N[C@@H](Cc2c[nH]c3ccccc23)C(=O)N[C@@H](Cc2ccc(C(=O)O)cc2)C(=O)NCC(=O)N2C[C@H](N)C[C@H]2C(=O)N[C@@H]([C@@H](C)c2cccc3ccccc23)C(=O)N[C@@H](CC(=O)O)C(=O)N1C` [Example 13] (cyclo([Bip(4'-COOH)]W[Phe(4-COOH)]G[Pro(4R-NH2)][1Nal(3S-Me)]D[dNMeA]G[Bip(4'-COOH)][Ala(indazol-1-yl)][Dap][dA][hTyr])), the IC50 was determined as 31 pM.
In the case of `C[C@@H]1C(=O)NCC(=O)N[C@@H](Cc2ccc(-c3ccc(C(=O)O)cc3)cc2)C(=O)N[C@@H](CN2CCc3ccccc32)C(=O)N[C@@H](CN)C(=O)N[C@H](C)C(=O)N[C@@H](CCc2ccc(O)cc2)C(=O)N[C@@H](Cc2ccc(-c3ccc(C(=O)O)cc3)cc2)C(=O)N[C@@H](Cc2c[nH]c3ccccc23)C(=O)N[C@@H](Cc2ccc(C(=O)O)cc2)C(=O)NCC(=O)N2C[C@H](N)C[C@H]2C(=O)N[C@@H]([C@@H](C)c2cccc3ccccc23)C(=O)N[C@@H](CC(=O)O)C(=O)N1C` [Example 14] (cyclo([Bip(4'-COOH)]W[Phe(4-COOH)]G[Pro(4R-NH2)][1Nal(3S-Me)]D[dNMeA]G[Bip(4'-COOH)][Ala(indolin-1-yl)][Dap][dA][hTyr])), the IC50 is 29.7 pM.
As for `C[C@@H]1C(=O)NCC(=O)N[C@@H](Cc2ccc(-c3ccc(C(=O)O)cc3)cc2)C(=O)N[C@@H](Cc2cccc3ccccc23)C(=O)N[C@@H](CCN)C(=O)NC(C)(C)C(=O)NCC(=O)N[C@@H](Cc2ccc(-c3ccc(C(=O)O)cc3)cc2)C(=O)N[C@@H](Cc2c[nH]c3ccccc23)C(=O)N[C@@H](Cc2ccc(C(=O)O)cc2)C(=O)NCC(=O)N2C[C@H](N)C[C@H]2C(=O)N[C@@H]([C@@H](C)c2cccc3ccccc23)C(=O)N[C@@H](CC(=O)O)C(=O)N1C` [Example 15] (cyclo([Bip(4'-COOH)]W[Phe(4-COOH)]G[Pro(4R-NH2)][1Nal(3S-Me)]D[dNMeA]G[Bip(4'-COOH)][1Nal][Dab][Aib]G)), the figure is 654 pM; as for `C[C@@H]1C(=O)NCC(=O)N[C@@H](Cc2ccc(-c3ccc(C(=O)O)cc3)cc2)C(=O)N[C@@H](Cc2cccc3ccccc23)C(=O)N[C@@H](CCN)C(=O)NC(C)(C)C(=O)N[C@@H](CCc2ccc(O)cc2)C(=O)N[C@@H](Cc2ccc(-c3ccc(C(=O)O)cc3)cc2)C(=O)N[C@@H](Cc2c[nH]c3ccccc23)C(=O)N[C@@H](Cc2ccc(C(=O)O)cc2)C(=O)NCC(=O)N2C[C@H](N)C[C@H]2C(=O)N[C@@H]([C@@H](C)c2cccc3ccccc23)C(=O)N[C@@H](CC(=O)O)C(=O)N1C` [Example 16] (cyclo([Bip(4'-COOH)]W[Phe(4-COOH)]G[Pro(4R-NH2)][1Nal(3S-Me)]D[dNMeA]G[Bip(4'-COOH)][1Nal][Dab][Aib][hTyr])), 175 pM.
Take `C[C@@H]1C(=O)NCC(=O)N[C@@H](Cc2ccc(-c3ccc(C(=O)O)cc3)cc2)C(=O)N[C@@H](Cc2cccc3ccccc23)C(=O)N[C@@H](CN)C(=O)NC(C)(C)C(=O)NCC(=O)N[C@@H](Cc2ccc(-c3ccc(C(=O)O)cc3)cc2)C(=O)N[C@@H](Cc2c[nH]c3ccccc23)C(=O)N[C@@H](Cc2ccc(C(=O)O)cc2)C(=O)NCC(=O)N2C[C@H](N)C[C@H]2C(=O)N[C@@H]([C@@H](C)c2cccc3ccccc23)C(=O)N[C@@H](CC(=O)O)C(=O)N1C` [Example 17] (cyclo([Bip(4'-COOH)]W[Phe(4-COOH)]G[Pro(4R-NH2)][1Nal(3S-Me)]D[dNMeA]G[Bip(4'-COOH)][1Nal][Dap][Aib]G)): the half-inhibitory concentration (IC50) came out at 222 pM.
`C[C@@H]1C(=O)NCC(=O)N[C@@H](Cc2ccc(-c3ccc(C(=O)O)cc3)cc2)C(=O)N[C@@H](Cc2cccc3ccccc23)C(=O)N[C@@H](CN)C(=O)NC(C)(C)C(=O)N[C@@H](CCc2cncc(C#N)c2)C(=O)N[C@@H](Cc2ccc(-c3ccc(C(=O)O)cc3)cc2)C(=O)N[C@@H](Cc2c[nH]c3ccccc23)C(=O)N[C@@H](Cc2ccc(C(=O)O)cc2)C(=O)NCC(=O)N2C[C@H](N)C[C@H]2C(=O)N[C@@H]([C@@H](C)c2cccc3ccccc23)C(=O)N[C@@H](CC(=O)O)C(=O)N1C` [Example 18] (cyclo([Bip(4'-COOH)]W[Phe(4-COOH)]G[Pro(4R-NH2)][1Nal(3S-Me)]D[dNMeA]G[Bip(4'-COOH)][1Nal][Dap][Aib][h3Pal(5-CN)])): the IC50 is 88.5 pM.
To `CC(C)C[C@@H]1NC(=O)[C@H](Cc2cccc3ccccc23)NC(=O)[C@H](Cc2ccc(-c3ccc(C(=O)O)cc3)cc2)NC(=O)CNC(=O)[C@@H](C)N(C)C(=O)[C@H](CC(=O)O)NC(=O)[C@H]([C@@H](C)c2cccc3ccccc23)NC(=O)[C@@H]2C[C@@H](N)CN2C(=O)CNC(=O)[C@H](Cc2ccc(C(=O)O)cc2)NC(=O)[C@H](Cc2c[nH]c3ccccc23)NC(=O)[C@H](Cc2ccc(-c3ccc(C(=O)O)cc3)cc2)NC(=O)CNC(=O)C(C)(C)NC1=O` [Example 19] (cyclo([Bip(4'-COOH)]W[Phe(4-COOH)]G[Pro(4R-NH2)][1Nal(3S-Me)]D[dNMeA]G[Bip(4'-COOH)][1Nal]L[Aib]G)) belongs 118 pM; to `C[C@@H]1C(=O)NCC(=O)N[C@@H](Cc2ccc(-c3ccc(C(=O)O)cc3)cc2)C(=O)N[C@@H](Cc2cccc3ccccc23)C(=O)N[C@@H](CCCN)C(=O)NC(C)(C)C(=O)NCC(=O)N[C@@H](Cc2ccc(-c3ccc(C(=O)O)cc3)cc2)C(=O)N[C@@H](Cc2c[nH]c3ccccc23)C(=O)N[C@@H](Cc2ccc(C(=O)O)cc2)C(=O)NCC(=O)N2C[C@H](N)C[C@H]2C(=O)N[C@@H]([C@@H](C)c2cccc3ccccc23)C(=O)N[C@@H](CC(=O)O)C(=O)N1C` [Example 20] (cyclo([Bip(4'-COOH)]W[Phe(4-COOH)]G[Pro(4R-NH2)][1Nal(3S-Me)]D[dNMeA]G[Bip(4'-COOH)][1Nal][Orn][Aib]G)), 440 pM.
As for `C[C@@H]1C(=O)NCC(=O)N[C@@H](Cc2ccc(-c3ccc(C(=O)O)cc3)cc2)C(=O)N[C@@H](Cc2ccncc2)C(=O)N[C@@H](CN)C(=O)N[C@H](C)C(=O)N[C@@H](CCc2cncc(C#N)c2)C(=O)N[C@@H](Cc2ccc(-c3ccc(C(=O)O)cc3)cc2)C(=O)N[C@@H](Cc2c[nH]c3ccccc23)C(=O)N[C@@H](Cc2ccc(C(=O)O)cc2)C(=O)NCC(=O)N2C[C@H](N)C[C@H]2C(=O)N[C@@H]([C@@H](C)c2cccc3ccccc23)C(=O)N[C@@H](CC(=O)O)C(=O)N1C` [Example 21] (cyclo([Bip(4'-COOH)]W[Phe(4-COOH)]G[Pro(4R-NH2)][1Nal(3S-Me)]D[dNMeA]G[Bip(4'-COOH)][4Pal][Dap][dA][h3Pal(5-CN)])), the figure is 23.4 pM.
To `C[C@@H]1C(=O)NCC(=O)N[C@@H](Cc2ccc(-c3ccc(C(=O)O)cc3)cc2)C(=O)N[C@@H](Cc2ccncc2)C(=O)N[C@@H](CN)C(=O)N[C@H](C)C(=O)N[C@@H](CCc2ccc(O)cc2)C(=O)N[C@@H](Cc2ccc(-c3ccc(C(=O)O)cc3)cc2)C(=O)N[C@@H](Cc2c[nH]c3ccccc23)C(=O)N[C@@H](Cc2ccc(C(=O)O)cc2)C(=O)NCC(=O)N2C[C@H](N)C[C@H]2C(=O)N[C@@H]([C@@H](C)c2cccc3ccccc23)C(=O)N[C@@H](CC(=O)O)C(=O)N1C` [Example 22] (cyclo([Bip(4'-COOH)]W[Phe(4-COOH)]G[Pro(4R-NH2)][1Nal(3S-Me)]D[dNMeA]G[Bip(4'-COOH)][4Pal][Dap][dA][hTyr])) belongs 32.5 pM.

The values are drawn from US20230406885A1, “CYCLIC PEPTIDES FOR TRAPPING INTERLEUKIN-1 BETA” (MERCK SHARP & DOHME LLC, priority 2022, published 2023).
